From ChEMBL document CHEMBL4808191, “Design, synthesis and biological evaluation of novel deoxyvasicinone-indole as multi-target agents for Alzheimer's disease” (Bioorg Med Chem Lett, 2021) come the findings set out here.

The target in data set [1] is Amyloid-beta precursor protein (Homo sapiens, UniProt P05067).
A further data set has as its target Acetylcholinesterase (Electrophorus electricus, UniProt O42275). Description: Inhibition of electric eel AChE by Ellman's method. For orientation: Ellman's reagent forms a yellow product with free thiols.
A further data set has as its target Cholinesterase (Equus caballus, UniProt P81908).
The target in data set [2] is Acetylcholinesterase (Homo sapiens) (UniProt P22303). The data set can be described thus: Inhibition of AChE (unknown origin)-induced amyloid beta(1 to 42) aggregation by thioflavin-T fluorescence assay. The conditions noted are these: concentration not given here.
Sequence of Acetylcholinesterase (Homo sapiens) (P22303 whole entry): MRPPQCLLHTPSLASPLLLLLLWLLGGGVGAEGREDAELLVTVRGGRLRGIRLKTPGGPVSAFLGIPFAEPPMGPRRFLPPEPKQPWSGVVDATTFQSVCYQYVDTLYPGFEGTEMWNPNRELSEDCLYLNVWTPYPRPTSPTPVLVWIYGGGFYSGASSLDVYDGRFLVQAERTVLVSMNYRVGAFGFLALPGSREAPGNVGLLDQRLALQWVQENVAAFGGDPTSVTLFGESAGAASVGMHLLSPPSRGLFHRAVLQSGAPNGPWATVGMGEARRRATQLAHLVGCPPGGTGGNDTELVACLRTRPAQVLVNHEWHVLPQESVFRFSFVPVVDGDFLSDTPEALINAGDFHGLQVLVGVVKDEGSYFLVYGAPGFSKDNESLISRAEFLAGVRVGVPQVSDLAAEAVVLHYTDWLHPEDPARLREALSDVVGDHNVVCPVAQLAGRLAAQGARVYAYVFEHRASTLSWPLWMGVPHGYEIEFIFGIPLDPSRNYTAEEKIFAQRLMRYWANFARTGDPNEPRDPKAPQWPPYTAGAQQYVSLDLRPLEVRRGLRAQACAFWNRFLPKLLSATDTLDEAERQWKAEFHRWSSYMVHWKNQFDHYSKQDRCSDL
For data set [3] the target is unchanged. Description: Mixed type inhibition of AChE (unknown origin) assessed as increase in Km by Lineweaver-Burk plot analysis.
A further data set has as its system PC-12. Description: Cytotoxicity against rat PC12 cells assessed as effect on cell viability at <12.5 uM by CCK8 assay. In kind it is cell-based.
The next data set deals with BV-2. Description: Cytotoxicity against mouse BV-2 cells assessed as effect on cell viability at <12.5 uM by CCK8 assay. In kind it is cell-based. (Formazan colour is commonly taken as a measure of viable cells.)
The target in data set [4] is Acetylcholinesterase (Homo sapiens) (UniProt P22303). Description: Mixed type inhibition of AChE (unknown origin) assessed as decrease in Vmax by Lineweaver-Burk plot analysis.

Molecules are shown by their SMILES. pIC50: −log10 of the molar value. Calls of active or inactive are those of the source. The rule behind the calls is not given here.

As a reminder, the pIC50 is −log10 of the IC50, conventionally taken in molar units. A high value points to a small IC50. In general, inhibition refers to the drop in the measured response relative to a control, in per cent.

Sequence of Acetylcholinesterase (O42275 whole entry): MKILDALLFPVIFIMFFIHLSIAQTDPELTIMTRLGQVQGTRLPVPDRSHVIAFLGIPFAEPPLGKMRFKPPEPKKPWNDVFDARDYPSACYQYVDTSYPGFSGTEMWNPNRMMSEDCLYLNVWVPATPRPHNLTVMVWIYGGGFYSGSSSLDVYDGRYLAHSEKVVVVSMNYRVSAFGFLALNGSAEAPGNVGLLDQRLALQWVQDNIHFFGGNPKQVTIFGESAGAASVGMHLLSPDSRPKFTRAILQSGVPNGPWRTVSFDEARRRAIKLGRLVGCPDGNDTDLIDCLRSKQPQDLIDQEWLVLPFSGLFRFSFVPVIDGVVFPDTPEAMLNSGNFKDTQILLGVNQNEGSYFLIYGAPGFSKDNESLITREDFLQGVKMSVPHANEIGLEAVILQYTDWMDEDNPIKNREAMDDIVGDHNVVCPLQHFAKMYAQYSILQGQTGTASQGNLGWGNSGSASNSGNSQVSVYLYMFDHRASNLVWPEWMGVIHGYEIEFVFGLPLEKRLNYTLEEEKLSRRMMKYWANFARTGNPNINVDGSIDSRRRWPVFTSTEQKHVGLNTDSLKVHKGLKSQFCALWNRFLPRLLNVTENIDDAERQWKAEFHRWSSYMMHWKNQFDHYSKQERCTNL
Sequence of Amyloid-beta precursor protein (P05067 whole entry): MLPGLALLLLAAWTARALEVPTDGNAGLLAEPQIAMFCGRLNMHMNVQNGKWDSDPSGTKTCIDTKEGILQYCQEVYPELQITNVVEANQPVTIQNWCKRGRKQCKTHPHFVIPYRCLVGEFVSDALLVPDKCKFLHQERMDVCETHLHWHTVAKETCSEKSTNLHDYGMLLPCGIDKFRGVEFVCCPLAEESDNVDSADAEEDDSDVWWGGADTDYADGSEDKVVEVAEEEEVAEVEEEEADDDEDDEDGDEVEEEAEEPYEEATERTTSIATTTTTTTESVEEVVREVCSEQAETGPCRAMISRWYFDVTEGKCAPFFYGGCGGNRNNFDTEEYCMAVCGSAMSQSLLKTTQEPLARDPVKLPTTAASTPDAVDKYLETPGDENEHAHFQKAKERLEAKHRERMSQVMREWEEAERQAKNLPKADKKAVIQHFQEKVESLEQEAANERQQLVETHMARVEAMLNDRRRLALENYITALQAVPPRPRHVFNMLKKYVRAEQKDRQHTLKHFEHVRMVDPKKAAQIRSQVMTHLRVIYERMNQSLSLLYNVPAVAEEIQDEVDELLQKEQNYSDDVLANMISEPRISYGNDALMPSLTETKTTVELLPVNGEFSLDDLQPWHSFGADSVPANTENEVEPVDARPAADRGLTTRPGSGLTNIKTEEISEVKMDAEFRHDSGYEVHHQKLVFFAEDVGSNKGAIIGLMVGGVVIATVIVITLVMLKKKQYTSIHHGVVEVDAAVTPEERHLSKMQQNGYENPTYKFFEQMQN
Sequence of Cholinesterase (P81908 whole entry): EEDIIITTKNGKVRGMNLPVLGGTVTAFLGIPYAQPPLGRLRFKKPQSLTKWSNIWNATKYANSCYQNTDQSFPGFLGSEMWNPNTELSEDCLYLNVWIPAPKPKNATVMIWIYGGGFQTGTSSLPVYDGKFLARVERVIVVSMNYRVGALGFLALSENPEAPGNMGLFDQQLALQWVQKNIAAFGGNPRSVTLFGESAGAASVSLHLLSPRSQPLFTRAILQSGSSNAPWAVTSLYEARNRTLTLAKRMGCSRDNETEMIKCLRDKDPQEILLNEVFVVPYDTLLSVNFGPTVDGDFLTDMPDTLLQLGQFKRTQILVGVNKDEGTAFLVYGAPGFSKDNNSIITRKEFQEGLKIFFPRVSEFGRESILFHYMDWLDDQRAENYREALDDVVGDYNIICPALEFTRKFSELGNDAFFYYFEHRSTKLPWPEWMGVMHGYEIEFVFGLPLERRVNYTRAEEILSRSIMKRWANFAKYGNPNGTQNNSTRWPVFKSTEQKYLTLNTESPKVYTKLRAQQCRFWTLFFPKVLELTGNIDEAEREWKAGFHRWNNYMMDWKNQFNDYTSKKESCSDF

For the compound `Cc1cc2nc3n(c(=O)c2cc1NC(=O)c1cc2cc(F)ccc2[nH]1)CCC3`, the results for the negative logarithm of the IC50 (pIC50) (in data set [1]; against Acetylcholinesterase; on Cholinesterase) were 5.49, 5.87 and 5.76, respectively.
As to `COc1ccc2[nH]c(C(=O)Nc3ccc4nc5n(c(=O)c4c3)CCC5)cc2c1`, the inhibition in data set [2] stood at 80%. The pIC50 in data set [1] is 5.92; against Acetylcholinesterase, 6.92; against Cholinesterase, 6.82. Also, the inhibition result in data set [3] and in data set [4] was “Active” each time. For the same compound, the Activity entry in the data set with PC-12 and with BV-2 was “Non-Toxic” in each case.
With `O=C(CCCc1cc2ccccc2[nH]1)Nc1ccc2nc3n(c(=O)c2c1)CCC3`, the pIC50 in data set [1] was 5.28; at Acetylcholinesterase, 5.20; against Cholinesterase it was 5.80.
Turning to `O=C(Nc1ccc2nc3n(c(=O)c2c1)CCC3)c1cc2cc(F)ccc2[nH]1`, in data set [2], the inhibition was 61.8%. Besides, the pIC50 in data set [1] is 5.81; against Acetylcholinesterase it was 6.11; on Cholinesterase, 6.12.
With `O=C(Cc1cc2ccccc2[nH]1)Nc1ccc2nc3n(c(=O)c2c1)CCC3`, the values for the pIC50 (in data set [1]; at Acetylcholinesterase; against Cholinesterase) were 5.79, 6.01 and 5.86, respectively.
In data set [2], `O=C(Nc1ccc2nc3n(c(=O)c2c1)CCC3)c1cc2cc(Cl)ccc2[nH]1` returned an inhibition of 52.1%. The pIC50 in data set [1] is 5.77; at Acetylcholinesterase, 6.59; at Cholinesterase it was 6.11.
As for `O=C(/C=C/c1cc2ccccc2[nH]1)Nc1ccc2nc3n(c(=O)c2c1)CCC3`, the results for the pIC50 (in data set [1]; at Acetylcholinesterase; against Cholinesterase) were 5.51, 5.78 and 5.35, respectively.
On the same counts, the results for `COc1ccc2[nH]c(C(=O)Nc3cc4c(=O)n5c(nc4cc3C)CCC5)cc2c1` are 5.21, 5.68 and 5.28.
The corresponding values for `O=C(Nc1ccc2nc3n(c(=O)c2c1)CCC3)c1cc2ccccc2o1` are 5.49, 5.82 and 5.73.
Regarding `Cc1cc2nc3n(c(=O)c2cc1NC(=O)c1cc2cc(Cl)ccc2[nH]1)CCC3`, the negative-log IC50 (pIC50) was 5.29 in data set [1], 5.97 against Acetylcholinesterase and 5.33 against Cholinesterase.
On the same counts, the results for `O=C(Nc1ccc2nc3n(c(=O)c2c1)CCC3)c1cc2ccccc2s1` are 5.64, 5.60 and 5.72.
On the same counts, the results for `O=C(Nc1ccc2nc3n(c(=O)c2c1)CCC3)c1cc2ccccc2[nH]1` are 5.67, 5.81 and 6.05.
